The subject of the experiment is aqueous tear production. As to the kind of experiment: Schirmer tear test in dogs with aqueous tear deficiency / KCS. The format is in vivo, dog. From the text:
The Schirmer tear test is a test of aqueous tear production. The test depends upon observing the extent of wetting of a strip of filter paper placed over the lower lid of an eye for a specified time. Standardized strips are commercially available. The strip is folded at a notched marking and is then placed over the edge of the lateral one-third of the eyelid. The strip is usually left in place for a period of time while the patient looks straight ahead in dim light.
The degree of wetting of the paper is measured in mm from the notch. For human patients, a normal end point is 5 mm of wetting at five minutes. For canine patients, the normal tear production is 14 to 20 mm. of wetting at one minute.

[1] abbreviates: Example 3 English Bulldog, three drops of 2% pilocarpine by mouth, after two hours.

The values below come from US4839342A, “Method of increasing tear production by topical administration of cyclosporin” (University of Georgia Research Foundation, Inc., priority 1987, dated 1989).

For `C[C@@H]1C[C@H]2[C@@H]3CCC4=CC(=O)C=C[C@]4(C)[C@@]3(F)[C@@H](O)C[C@]2(C)[C@@]1(O)C(=O)CO` [dexamethasone], the “benefit of treatment (tear deficiency, conjunctivitis)” value (Example 1 Poodle, topical, both eyes twice daily for nine weeks) was “without benefit”.

In the case of `CC[C@@H]1C(=O)OC[C@@H]1Cc1cncn1C` [pilocarpine], under setting [1], the “Schirmer tear test value, left eye” value is 10 mm/minute and the “Schirmer tear test value, right eye” value was 0 mm/minute. The “Schirmer tear test values, both eyes” value (Example 4 Miniature Poodle, one drop 2% pilocarpine by mouth two times daily with ophthalmic petrolatum, after two weeks) came to 0 mm/minute.
